pIC50: −log10 of the molar value.
Columns and labels:
[1] = human hepatocytes
[2] = MDCK, A to B
[3] = rat hepatocytes
[4] = Rat pharmacokinetics; type: in vivo
[5] = test system: CD86 surface expression on B cells; experiment: cells; conditions: Mus musculus, B-cell, read-out: CD86 IC50
[6] = physchem; conditions: pH 7.4, Sol. (kinetic solubility)
[7] = test system: collagen-induced arthritis (CIA) model in Lewis rat; conditions: 0.05 mg/kg daily, days 10–17

SMILES	HHep (projected hepatic clearance) [1]	Perm. [2]	RHep (projected hepatic clearance) [3]	further results
CN1CCN(c2ccc(Nc3cc(-c4cccc(N5CCn6c(cc7c6CCCC7)C5=O)c4CO)cn(C)c3=O)nc2)CC1 [compound 17]	10	MOD (MOD: 1–10 (10^–6 cm/s))	12	–
Cn1cc(-c2cccc(N3CCn4c(cc5c4CCCC5)C3=O)c2CO)cc(Nc2ccc(N3CCN(C4COC4)CC3)cn2)c1=O [compound 18]	< 6	MOD (MOD: 1–10 (10^–6 cm/s))	< 10	–
CN1CCN(c2ccc(Nc3cc(-c4cc(F)cc(N5CCn6c(cc7c6CCCC7)C5=O)c4CO)cn(C)c3=O)nc2)CC1 [compound 19]	< 6.2	MOD (MOD: 1–10 (10^–6 cm/s))	< 10.1	–
Cn1cc(-c2cccc(N3CCc4c(sc5c4CC(C)(C)C5)C3=O)c2CO)cc(Nc2ccncn2)c1=O [compound 7]	–	–	–	Rat CL (total clearance) ([4]; 1 mg/kg i.v.): 16 mL/min/kg; clearance ([4]; in vivo, iv, 1 mg/kg): 16 mL/min/kg; bioavailability ([4]; in vivo, po, 5 mg/kg, pH 3): 37%
Cn1cc(-c2cc(F)cc(N3CCn4c(cc5c4CCCC5)C3=O)c2CO)cc(Nc2ccc(N3CCN(C4COC4)CC3)cn2)c1=O [compound 20]	< 6	HIGH (HIGH: >10 (10^–6 cm/s))	< 10	–
Cn1cc(-c2cccc(N3CCc4cc(C(C)(C)C)ccc4C3=O)c2CO)cc(Nc2ccncn2)c1=O [compound 9]	–	–	–	pIC50 [5]: > 7.00; solubility kinetic [6]: < 2 µM
C[C@@H]1C[C@H]2[C@@H]3CCC4=CC(=O)C=C[C@]4(C)[C@@]3(F)[C@@H](O)C[C@]2(C)[C@@]1(O)C(=O)CO [dexamethasone]	–	–	–	ankle diameter [7]: significantly (by ANOVA) reduced toward normal

Reference: paper PMC5467183 (ACS Medicinal Chemistry Letters, 2017)
